Experimental data: patent US12077503B2, “Substituted cyclic amides and their use as herbicides” (FMC CORPORATION, priority 2015, dated 2024)
Read-outs that look alike come from different tables or passages of the source.

Legend:
Assay in all cases: Test A preemergence
Assay type in all cases: in vivo
[1] = test system: barnyardgrass (Echinochloa crus-galli); settings: Echinochloa crus-galli, pre-emergence, 240 h; for pest or weed control at 500 g/ha: 500 g ai/ha; for pest or weed control at 125 g/ha: 125 g ai/ha; for pest or weed control at 31 g/ha: 31 g ai/ha
Method in brief: (§1)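 Ratings of 0 (no effect) to 100 (complete control) come from visual comparison with untreated controls roughly 10 d after treatment. Test chemicals, formulated in a non-phytotoxic solvent mixture with surfactant, were applied either as a preemergence directed soil spray on seeded soil or postemergence to one- to two-leaf plants 2 to 10 cm tall.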

[2] = test system: ragweed (common ragweed, Ambrosia elatior); settings: Ambrosia artemisiifolia, pre-emergence, 240 h; for pest or weed control at 500 g/ha: 500 g ai/ha; for pest or weed control at 125 g/ha: 125 g ai/ha; for pest or weed control at 31 g/ha: 31 g ai/ha
Method in brief: as §1

[3] = test system: giant foxtail (Setaria faberii); settings: Setaria faberi, pre-emergence, 240 h; for pest or weed control at 500 g/ha: 500 g ai/ha; for pest or weed control at 125 g/ha: 125 g ai/ha; for pest or weed control at 31 g/ha: 31 g ai/ha
Method in brief: as §1

Kochia (Kochia scoparia) = settings: Bassia scoparia, pre-emergence, 240 h; for pest or weed control at 500 g/ha: 500 g ai/ha; for pest or weed control at 125 g/ha: 125 g ai/ha; for pest or weed control at 31 g/ha: 31 g ai/ha
Method in brief: as §1

[4] = test system: pigweed (Amaranthus retroflexus); settings: Amaranthus retroflexus, pre-emergence, 240 h; for pest or weed control at 500 g/ha: 500 g ai/ha; for pest or weed control at 125 g/ha: 125 g ai/ha; for pest or weed control at 31 g/ha: 31 g ai/ha
[5] = test system: ryegrass, Italian (Italian ryegrass, Lolium multiflorum); settings: Lolium multiflorum, pre-emergence, 240 h; for pest or weed control at 125 g/ha: 125 g ai/ha; for pest or weed control at 500 g/ha: 500 g ai/ha; for pest or weed control at 31 g/ha: 31 g ai/ha
Method in brief: as §1

[6] = preemergence, 0 to 100 scale where 0 is no effect and 100 is complete control, read-out: Barnyardgrass plant response rating
[7] = Preemergence, 0 to 100 scale (0 no effect, 100 complete control), read-out: Plant response rating, Barnyardgrass
[8] = preemergence, 0 to 100 scale where 0 is no effect and 100 is complete control, read-out: Ragweed plant response rating
[9] = Preemergence, 0 to 100 scale (0 no effect, 100 complete control), read-out: Plant response rating, Ragweed
[10] = preemergence, 0 to 100 scale where 0 is no effect and 100 is complete control, read-out: Foxtail, Giant plant response rating
[11] = Preemergence, 0 to 100 scale (0 no effect, 100 complete control), read-out: Plant response rating, Foxtail, Giant
[12] = preemergence, 0 to 100 scale where 0 is no effect and 100 is complete control, read-out: Kochia plant response rating
[13] = Preemergence, 0 to 100 scale (0 no effect, 100 complete control), read-out: Plant response rating, Kochia
[14] = preemergence, 0 to 100 scale where 0 is no effect and 100 is complete control, read-out: Pigweed plant response rating
[15] = Preemergence, 0 to 100 scale (0 no effect, 100 complete control), read-out: Plant response rating, Pigweed
[16] = Preemergence, 0 to 100 scale (0 no effect, 100 complete control), read-out: Plant response rating, Ryegrass, Italian
[17] = preemergence, visual injury rating, 0 to 100 scale where 0 is no effect and 100 is complete control, approximately 10 d, read-out: Barnyardgrass plant response rating
[18] = preemergence, visual injury rating, 0 to 100 scale where 0 is no effect and 100 is complete control, approximately 10 d, read-out: Ragweed plant response rating
[19] = preemergence, visual injury rating, 0 to 100 scale where 0 is no effect and 100 is complete control, approximately 10 d, read-out: Foxtail, Giant plant response rating
[20] = preemergence, visual injury rating, 0 to 100 scale where 0 is no effect and 100 is complete control, approximately 10 d, read-out: Kochia plant response rating
[21] = preemergence, visual injury rating, 0 to 100 scale where 0 is no effect and 100 is complete control, approximately 10 d, read-out: Pigweed plant response rating
[22] = preemergence, visual injury rating, 0 to 100 scale where 0 is no effect and 100 is complete control, approximately 10 d, read-out: Ryegrass, Italian plant response rating
[23] = preemergence, 0 to 100 scale where 0 is no effect and 100 is complete control, read-out: Ryegrass, Italian plant response rating
[24] = preemergence, visual rating after approx. 10 d, 0 to 100 scale where 0 is no effect and 100 is complete control, read-out: Plant response rating, Barnyardgrass
[25] = preemergence, visual rating after approx. 10 d, 0 to 100 scale where 0 is no effect and 100 is complete control, read-out: Plant response rating, Ragweed
[26] = preemergence, visual rating after approx. 10 d, 0 to 100 scale where 0 is no effect and 100 is complete control, read-out: Plant response rating, Foxtail, Giant
[27] = preemergence, visual rating after approx. 10 d, 0 to 100 scale where 0 is no effect and 100 is complete control, read-out: Plant response rating, Kochia
[28] = preemergence, visual rating after approx. 10 d, 0 to 100 scale where 0 is no effect and 100 is complete control, read-out: Plant response rating, Pigweed
[29] = preemergence, visual rating after approx. 10 d, 0 to 100 scale where 0 is no effect and 100 is complete control, read-out: Plant response rating, Ryegrass, Italian

Row | SMILES | pest or weed control at 500 g/ha [1, 6] | pest or weed control at 500 g/ha [2, 8] | pest or weed control at 500 g/ha [3, 10] | pest or weed control at 500 g/ha (Kochia (Kochia scoparia); [12]) | pest or weed control at 500 g/ha [4, 14] | pest or weed control at 125 g/ha [1, 17] | pest or weed control at 125 g/ha [2, 18] | pest or weed control at 125 g/ha [3, 19] | pest or weed control at 125 g/ha (Kochia (Kochia scoparia); [20]) | pest or weed control at 125 g/ha [4, 21] | pest or weed control at 125 g/ha [5, 22] | pest or weed control at 500 g/ha [5, 23] | pest or weed control at 125 g/ha [1, 24] | pest or weed control at 125 g/ha [2, 25] | pest or weed control at 125 g/ha [3, 26] | pest or weed control at 125 g/ha (Kochia (Kochia scoparia); [27]) | pest or weed control at 125 g/ha [4, 28] | pest or weed control at 125 g/ha [5, 29] | pest or weed control at 31 g/ha [1, 7] | pest or weed control at 31 g/ha [2, 9] | other results
1 | CN1C[C@H](c2ccc3c(c2)CCO3)[C@@H](C(=O)Nc2cccc(F)c2F)C1=O [Compound 1324] | 100% | 90% | 100% | 90% | 40% | – | – | – | – | – | – | – | – | – | – | – | – | – | – | – | pest or weed control at 125 g/ha [1, 7]: 90%; pest or weed control at 125 g/ha [2, 9]: 90%; pest or weed control at 125 g/ha [3, 11]: 90%; pest or weed control at 125 g/ha (Kochia (Kochia scoparia); [13]): 90%; pest or weed control at 125 g/ha [4, 15]: 0%; pest or weed control at 125 g/ha [5, 16]: 20%
2 | CN1C[C@H](c2ccc(F)c(C#N)c2)[C@@H](C(=O)Nc2cccc(F)c2F)C1=O [Compound 1255] | 100% | 70% | 100% | 80% | 90% | 100% | 20% | 100% | 60% | 60% | 20% | 40% | – | – | – | – | – | – | – | – | –
3 | CN1C[C@H](c2cccc(C3CC3)c2)[C@@H](C(=O)Nc2ccccc2F)C1=O [Compound 815] | – | – | – | – | – | – | – | – | – | – | – | – | 90% | 0% | 90% | 70% | 30% | 80% | – | – | pest or weed control at 500 g/ha ([1]; Preemergence, visual injury vs untreated controls after approximately 10 d, read-out: Barnyardgrass plant response rating (0 to 100 scale where 0 is no effect and 100 is complete control)): 100%; pest or weed control at 500 g/ha ([2]; Preemergence, visual injury vs untreated controls after approximately 10 d, read-out: Ragweed plant response rating (0 to 100 scale where 0 is no effect and 100 is complete control)): 0%; pest or weed control at 500 g/ha ([3]; Preemergence, visual injury vs untreated controls after approximately 10 d, read-out: Foxtail, Giant plant response rating (0 to 100 scale where 0 is no effect and 100 is complete control)): 100%; pest or weed control at 500 g/ha (Kochia (Kochia scoparia); Preemergence, visual injury vs untreated controls after approximately 10 d, read-out: Kochia plant response rating (0 to 100 scale where 0 is no effect and 100 is complete control)): 80%; pest or weed control at 500 g/ha ([4]; Preemergence, visual injury vs untreated controls after approximately 10 d, read-out: Pigweed plant response rating (0 to 100 scale where 0 is no effect and 100 is complete control)): 50%; pest or weed control at 500 g/ha ([5]; Preemergence, visual injury vs untreated controls after approximately 10 d, read-out: Ryegrass, Italian plant response rating (0 to 100 scale where 0 is no effect and 100 is complete control)): 80%
4 | CN1CC[C@H](c2ccc3c(c2)OC(F)(F)O3)[C@@H](C(=O)Nc2ccc(F)c(F)c2F)C1=O [Compound 813] | – | – | – | – | – | – | – | – | – | – | – | – | 80% | 0% | 90% | 0% | 0% | 20% | 20% | 0% | pest or weed control at 31 g/ha [3, 11]: 70%; pest or weed control at 31 g/ha (Kochia (Kochia scoparia); [13]): 0%; pest or weed control at 31 g/ha [4, 15]: 0%; pest or weed control at 31 g/ha [5, 16]: 0%
5 | Cc1nc([C@H]2CN(C)C(=O)[C@@H]2C(=O)Nc2cccc(F)c2F)cs1 [Compound 1281] | 90% | 60% | 90% | 60% | 40% | 40% | 0% | 40% | 0% | 30% | 0% | 20% | – | – | – | – | – | – | – | – | –
6 | CSc1ccccc1NC(=O)[C@H]1C(=O)N(C)C[C@@H]1c1ccc(F)cc1 [Compound 1236] | 100% | 30% | 100% | 90% | 90% | 90% | 0% | 90% | 20% | 60% | 30% | 80% | – | – | – | – | – | – | – | – | –
7 | CN1CC[C@H](c2cccc(OC(F)(F)F)c2)[C@@H](C(=O)Nc2ccccc2C(F)(F)F)C1=O [Compound 806] | – | – | – | – | – | – | – | – | – | – | – | – | 0% | 0% | 0% | 0% | 0% | 0% | 0% | 0% | pest or weed control at 31 g/ha [3, 11]: 0%; pest or weed control at 31 g/ha (Kochia (Kochia scoparia); [13]): 0%; pest or weed control at 31 g/ha [4, 15]: 0%; pest or weed control at 31 g/ha [5, 16]: 0%
8 | CN1CC[C@H](c2ccc3c(c2)OC(F)(F)O3)[C@@H](C(=O)Nc2cccc(F)c2F)C1=O [Compound 812] | – | – | – | – | – | – | – | – | – | – | – | – | 90% | 0% | 90% | 0% | 0% | 20% | 70% | 0% | pest or weed control at 31 g/ha [3, 11]: 80%; pest or weed control at 31 g/ha (Kochia (Kochia scoparia); [13]): 0%; pest or weed control at 31 g/ha [4, 15]: 0%; pest or weed control at 31 g/ha [5, 16]: 0%
